Experimental data reported in patent publication US8623593B1, “GPR 17 agonists and screening assay” (Rheinische Friedrich-Wilhelms-Universität Bonn, priority 2011, dated 2014).

Assays:
[1] = target: T1, GPR17 (Homo sapiens, UniProt Q13304); conditions: reported in WO 2005/103291; cited from earlier work
Target sequence in this assay (Q13304 whole entry, species assumed): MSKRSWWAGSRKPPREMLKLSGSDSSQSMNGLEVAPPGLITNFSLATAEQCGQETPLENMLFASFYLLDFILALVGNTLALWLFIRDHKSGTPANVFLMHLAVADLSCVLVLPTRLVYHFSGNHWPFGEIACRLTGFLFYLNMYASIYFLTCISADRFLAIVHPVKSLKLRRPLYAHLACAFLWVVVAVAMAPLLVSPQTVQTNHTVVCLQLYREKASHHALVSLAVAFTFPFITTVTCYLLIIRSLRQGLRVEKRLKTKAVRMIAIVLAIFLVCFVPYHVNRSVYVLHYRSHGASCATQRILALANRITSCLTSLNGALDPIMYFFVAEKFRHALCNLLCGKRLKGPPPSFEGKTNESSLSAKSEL

[2] = target: T1, GPR17; assay: inhibition of forskolin-stimulated cAMP production in CHO-GPR17 cells; assay type: cell-based; parameters: expressed in transfected cells; host or cells: Flp-In T-REx CHO cells, expression induced with doxycycline; conditions: for activation of GPR17: comparison with RA-II-150, FIG. 2
Source text: Two signal transduction pathways that influence the activity of the adenylyl cyclase in oppositional ways can be activated upon receptor activation. Whereas the Gs pathway stimulates the adenylyl cyclase-dependent catalysation of cAMP formation, the Gi pathway inhibits it. The detection of cAMP accumulation is based on the HTRF® technology described above. In this case a monoclonal antibody specific to cAMP was the donor fluorophore while the acceptor fluorophore d2 was fused to cAMP. The analysis of the Gi pathway was based on the direct activation of the adenylyl cyclase, for example, by forskolin. Upon activation, the Gi pathway inhibits the forskolin-dependent activation of the adenylyl cyclase, leading to decreased cAMP accumulation. The inhibition of forskolin-stimulated cAMP accumulation in 1321N1 or CHO cells was performed using the HTRF® cAMP dynamic kit (Cisbio Bioassays, BP 84175, France). Cells were resuspended in assay buffer with 1 mM 3-isobutyl-1-methylxanthine (IBMX) supplemented and dispensed in 384-well microplates at a density of 50,000 cells/well in a volume of 5 μl. After preincubation in assay buffer for 30 min, the cells were stimulated by adding 5 μl of agonist in the respective concentration of forskolin. The final concentration of forskolin was dependent on the cell line which was employed in the assay. Adenylyl cyclase was stimulated with 1 μM forskolin in 1321N1-GPR17 cells and with 10 μM forskolin in CHO-GPR17 cells, followed by incubation for 30 min at room temperature. The reaction was terminated by lysis of the cells, which results from the addition of 5 μl of d2-conjugate followed by the addition of 5 μl of […] (both supplements are diluted in conjugate and lysis buffer). The assay was incubated for 60 min at room temperature and time-resolved FRET signals were measured at an excitation wavelength of 320 nm using the Mithras LB 940 multimode reader (Berthold technologies, D-75323 Bad Wildbad). The evaluation of HTRFR data was performed following the instructions of the kit manufacturer. Data analysis was based on the fluorescence ratio emitted by labeled cAMP (665 nm) over the light emitted by the europium cryptate-labelled anti-cAMP (620 nm). Levels of cAMP were normalised to the amount of cAMP elevated by 10 μM or 1 μM forskolin alone.
Target sequence in this assay (Q13304 29-367): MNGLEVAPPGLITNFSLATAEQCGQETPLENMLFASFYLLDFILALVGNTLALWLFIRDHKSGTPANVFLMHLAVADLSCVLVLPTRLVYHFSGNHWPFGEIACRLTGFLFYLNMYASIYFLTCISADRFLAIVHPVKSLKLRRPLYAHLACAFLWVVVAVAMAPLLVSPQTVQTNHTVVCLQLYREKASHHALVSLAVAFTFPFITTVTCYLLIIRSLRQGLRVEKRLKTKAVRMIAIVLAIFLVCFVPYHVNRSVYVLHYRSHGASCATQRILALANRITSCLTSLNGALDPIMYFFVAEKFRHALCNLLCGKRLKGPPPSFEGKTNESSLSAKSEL

[3] = exposure to air and light; cited from earlier work

less potent as compared with RA-II-150 ([2]; FIG. 2, forskolin-stimulated cAMP production) [fold]	inhibition of forskolin stimulated adenylylcyclase activity ([2]; GPR17 CHO cells, after 5-ALA addition)	activation of GPR17 [2]	Compound	amounts needed in the assays [1]	chemical stability [3]
10.000	GPR17-independent inhibition	confirm the activation	NCC(=O)CCC(=O)O [5-ALA, 5 amino levulinic acid]	three digit micromolar range	–
–	–	failed	NCc1[nH]cc(CCC(=O)O)c1CC(=O)O [PBG, porphobilinogen]	mM range	rapidly decomposes after exposure to air and light
